Measured values as given in ChEMBL document CHEMBL1201862, “PubChem BioAssay data set” (2004).
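1) Cells in 96-well plates. 2) Compound, 48 h, 5 concentrations. 3) Linear interpolation between surrounding doses. 4) Unreached endpoint = highest concentration. GI50 marks 50% less growth.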 Active and inactive are the calls of the source. Rule as the data show it: active = GI50 up to about 1.1 µM and inactive = higher.

Legend:
Assay in all cases: NCI anticancer screen, dose series, 48 h
[1] = system: 786-0
[2] = system: A498
[3] = system: DU-145
[4] = system: HCC 2998
[5] = system: HCT-116
[6] = system: HT-29
[7] = system: KM12
[8] = system: LOX IMVI
[9] = system: M14
[10] = system: MDA-MB-435
[11] = system: NCI/ADR-RES
[12] = system: OVCAR-3
[13] = system: PC-3
[14] = system: SF-268
[15] = system: SF-295
[16] = system: SK-MEL-28
[17] = system: SK-MEL-2
[18] = system: UACC-257
[19] = system: K562
[20] = system: NCI-H460

SMILES	GI50 [1]	GI50 [2]	GI50 [3]	GI50 [4]	GI50 [5]	GI50 [6]	GI50 [7]	GI50 [8]	GI50 [9]	GI50 [10]	GI50 [11]	GI50 [12]	GI50 [13]	GI50 [14]	GI50 [15]	GI50 [16]	GI50 [17]	GI50 [18]	GI50 [19]	GI50 [20]
CC1(C)CCCC2(C)C3=C(CCC12)C(=O)OC3 (stereo not given)	> 100 µM (inactive)	> 100 µM (inactive)	> 100 µM (inactive)	> 100 µM (inactive)	> 100 µM (inactive)	66.7 µM (inactive)	> 100 µM (inactive)	> 100 µM (inactive)	> 100 µM (inactive)	> 100 µM (inactive)	86.3 µM (inactive)	> 100 µM (inactive)	> 100 µM (inactive)	> 100 µM (inactive)	> 100 µM (inactive)	> 100 µM (inactive)	> 100 µM (inactive)	> 100 µM (inactive)	–	–
Cc1cc(S(=O)(=O)Nc2n[nH]c(-c3ccc(Cl)cc3)n2)c(SSc2cc(Cl)c(C)cc2S(=O)(=O)Nc2n[nH]c(-c3ccc(Cl)cc3)n2)cc1Cl	33.7 µM (inactive)	24.6 µM (inactive)	32.1 µM (inactive)	19.6 µM (inactive)	28.5 µM (inactive)	23.6 µM (inactive)	29.2 µM (inactive)	26.2 µM (inactive)	39.9 µM (inactive)	31.7 µM (inactive)	47.1 µM (inactive)	28.3 µM (inactive)	29.2 µM (inactive)	34.1 µM (inactive)	31.7 µM (inactive)	33 µM (inactive)	–	61.7 µM (inactive)	27 µM (inactive)	22.4 µM (inactive)
C=C1[C@H](OCC(C)C)[C@@H](OCC(C)C)[C@@H](O)C(C)(C)/C=C/[C@H](C)C(=O)[C@@]2(O)C[C@H](C)[C@H](O)[C@@H]2[C@H]1OCC(C)C	4.49 µM (inactive)	3.23 µM (inactive)	> 7.5 µM (inactive)	> 7.5 µM (inactive)	> 7.5 µM (inactive)	–	> 7.5 µM (inactive)	> 7.5 µM (inactive)	2.14 µM (inactive)	3.01 µM (inactive)	> 7.5 µM (inactive)	> 7.5 µM (inactive)	> 7.5 µM (inactive)	6.24 µM (inactive)	2.51 µM (inactive)	–	> 7.5 µM (inactive)	> 7.5 µM (inactive)	0.538 µM (active)	0.555 µM (active)
Cc1nc2ccc(F)cc2c(Cl)c1CCCl	34.1 µM (inactive)	63.1 µM (inactive)	44.8 µM (inactive)	33.4 µM (inactive)	26 µM (inactive)	25 µM (inactive)	28.1 µM (inactive)	25.2 µM (inactive)	–	26.9 µM (inactive)	43 µM (inactive)	42.3 µM (inactive)	44.4 µM (inactive)	37.1 µM (inactive)	51.1 µM (inactive)	40.3 µM (inactive)	–	39 µM (inactive)	25.8 µM (inactive)	30.5 µM (inactive)
O=S(=O)(O)c1ccc2cc(/N=N/c3c(O)ccc4ccccc34)ccc2c1	> 100 µM (inactive)	> 100 µM (inactive)	> 100 µM (inactive)	> 100 µM (inactive)	> 100 µM (inactive)	> 100 µM (inactive)	97.5 µM (inactive)	–	> 100 µM (inactive)	> 100 µM (inactive)	> 100 µM (inactive)	> 100 µM (inactive)	> 100 µM (inactive)	> 100 µM (inactive)	> 100 µM (inactive)	–	> 100 µM (inactive)	> 100 µM (inactive)	> 100 µM (inactive)	> 100 µM (inactive)
CC(C)(CN1CCCCC1)C(=O)CC(SCCS(=O)(=O)O)c1ccc(Cl)c(Cl)c1 (stereo not given)	1.86 µM (inactive)	3.56 µM (inactive)	11.4 µM (inactive)	13 µM (inactive)	2.59 µM (inactive)	3.08 µM (inactive)	5.71 µM (inactive)	–	1.92 µM (inactive)	2.21 µM (inactive)	3.21 µM (inactive)	2.37 µM (inactive)	4.94 µM (inactive)	3.72 µM (inactive)	3.25 µM (inactive)	–	24 µM (inactive)	5.94 µM (inactive)	2.42 µM (inactive)	2.22 µM (inactive)
C=CCO/N=C/c1cc(/N=C(/S)c2ccoc2C)ccc1Cl	22.6 µM (inactive)	20 µM (inactive)	14 µM (inactive)	10.5 µM (inactive)	10.9 µM (inactive)	10.3 µM (inactive)	7.93 µM (inactive)	14.6 µM (inactive)	16.6 µM (inactive)	19.1 µM (inactive)	7.26 µM (inactive)	11.5 µM (inactive)	11.4 µM (inactive)	14.8 µM (inactive)	9.48 µM (inactive)	37.8 µM (inactive)	13.6 µM (inactive)	14.9 µM (inactive)	–	–
NC1CC(=O)c2c1sc(Cl)c2Cl (stereo not given)	> 100 µM (inactive)	> 100 µM (inactive)	> 100 µM (inactive)	> 100 µM (inactive)	> 100 µM (inactive)	> 100 µM (inactive)	> 100 µM (inactive)	–	> 100 µM (inactive)	> 100 µM (inactive)	> 100 µM (inactive)	> 100 µM (inactive)	> 100 µM (inactive)	> 100 µM (inactive)	–	> 100 µM (inactive)	> 100 µM (inactive)	> 100 µM (inactive)	> 100 µM (inactive)	> 100 µM (inactive)
COc1cc(C(=O)N(C(=S)OC23CC4CC(CC(C4)C2)C3)c2ccccc2)cc(OC)c1OC	25.6 µM (inactive)	24.9 µM (inactive)	58.9 µM (inactive)	23.4 µM (inactive)	16.1 µM (inactive)	17.7 µM (inactive)	26.5 µM (inactive)	–	18.9 µM (inactive)	29.5 µM (inactive)	22.8 µM (inactive)	28.1 µM (inactive)	22.6 µM (inactive)	35.6 µM (inactive)	22.1 µM (inactive)	30.5 µM (inactive)	15.2 µM (inactive)	26.4 µM (inactive)	2.75 µM (inactive)	27.1 µM (inactive)
Cc1ccc(C(C2C(=O)N(C)C(=O)N(C)C2=O)C(F)(F)C(=O)N(C)C)cc1 (stereo not given)	> 100 µM (inactive)	> 100 µM (inactive)	> 100 µM (inactive)	> 100 µM (inactive)	> 100 µM (inactive)	–	> 100 µM (inactive)	> 100 µM (inactive)	> 100 µM (inactive)	> 100 µM (inactive)	> 100 µM (inactive)	> 100 µM (inactive)	> 100 µM (inactive)	> 100 µM (inactive)	> 100 µM (inactive)	> 100 µM (inactive)	> 100 µM (inactive)	> 100 µM (inactive)	–	> 100 µM (inactive)
COC(=O)[C@@H](NC(=O)N(CCC#N)CCCN(C(=O)N[C@H](Cc1ccccc1)C(=O)OC)c1ccccc1)C(C)C	> 100 µM (inactive)	> 100 µM (inactive)	> 100 µM (inactive)	47.3 µM (inactive)	> 100 µM (inactive)	–	> 100 µM (inactive)	97.3 µM (inactive)	> 100 µM (inactive)	57.1 µM (inactive)	> 100 µM (inactive)	57.8 µM (inactive)	81.8 µM (inactive)	84.1 µM (inactive)	> 100 µM (inactive)	34.3 µM (inactive)	40.6 µM (inactive)	29.2 µM (inactive)	–	–
COC(=O)[C@@](C)(COC(=O)C(C)(C)C)NC(=O)OC(C)(C)C	> 100 µM (inactive)	> 100 µM (inactive)	> 100 µM (inactive)	> 100 µM (inactive)	> 100 µM (inactive)	> 100 µM (inactive)	> 100 µM (inactive)	> 100 µM (inactive)	> 100 µM (inactive)	> 100 µM (inactive)	> 100 µM (inactive)	–	> 100 µM (inactive)	> 100 µM (inactive)	> 100 µM (inactive)	> 100 µM (inactive)	> 100 µM (inactive)	> 100 µM (inactive)	> 100 µM (inactive)	> 100 µM (inactive)
Cc1cc(O)ccc1C1(c2ccc(F)cc2)OC(=O)c2ccccc21 (stereo not given)	8.47 µM (inactive)	13.6 µM (inactive)	4.61 µM (inactive)	4.33 µM (inactive)	3.21 µM (inactive)	5.09 µM (inactive)	–	2.31 µM (inactive)	13.6 µM (inactive)	13.8 µM (inactive)	0.415 µM (active)	0.236 µM (active)	2.24 µM (inactive)	7.73 µM (inactive)	3.48 µM (inactive)	13.1 µM (inactive)	3.93 µM (inactive)	12.6 µM (inactive)	6.87 µM (inactive)	15.6 µM (inactive)
COc1ccc(C2NC(=S)Nc3c2c(=O)oc2c3ccc3ccccc32)cc1 (stereo not given)	80.7 µM (inactive)	38.9 µM (inactive)	> 100 µM (inactive)	–	78.2 µM (inactive)	> 100 µM (inactive)	58.3 µM (inactive)	> 100 µM (inactive)	45.6 µM (inactive)	86.3 µM (inactive)	81.5 µM (inactive)	> 100 µM (inactive)	54.7 µM (inactive)	> 100 µM (inactive)	59.3 µM (inactive)	52.5 µM (inactive)	44.1 µM (inactive)	> 100 µM (inactive)	56.9 µM (inactive)	96.6 µM (inactive)
CCN(CC)CCn1c2cc3c(cc2c(=O)c2cccnc21)OCO3	4.45 µM (inactive)	3.91 µM (inactive)	> 10 µM (inactive)	9.04 µM (inactive)	4.79 µM (inactive)	4.04 µM (inactive)	5.94 µM (inactive)	3.71 µM (inactive)	4.95 µM (inactive)	4.71 µM (inactive)	4.93 µM (inactive)	5.14 µM (inactive)	7.43 µM (inactive)	6.71 µM (inactive)	4.71 µM (inactive)	7.91 µM (inactive)	9.91 µM (inactive)	6.1 µM (inactive)	–	3.06 µM (inactive)
